In patent publication US8143418B2, “Dimeric small molecule potentiators of apoptosis” (Board of Regents, The University of Texas System, priority 2004, dated 2012):

Test system: Wap-ras tumors
Assay: In vivo therapy in the WAP-RAS transgenic model
Design: species or system mice
Conditions: mimetic 20 mpk po every 12 hours; Paclitaxel 5 mpk ip
Description: Mimetic and Paclitaxel combination efficacy is also evaluated in the Wap-ras transgenic model.
Mimetics (20 mpk/dosing po) were dissolved in 20% hydroxyl-propyl-betacyclodexatrin (Vehicle I). 0.2 ml of mimetic solution is the oral dosing volume. Paclitaxel (5 mpk/dosing ip) was dissolved in a diluted ethanol/cremophor EL solution (vehicle II) and the i.p. dosing volume for paclitaxel was 0.1 ml.
The mice are weighed, randomized, and ear-marked on Day 0. Mimetic treatment and Vehicle I treatment began on Day 1 and continued every 12 hours until Day 21. Paclitaxel and Vehicle II treatments are started on Day 4 and continued daily on Day 5, 6, and 7.

`CC(=O)O[C@H]1C(=O)[C@@]2(C)[C@H]([C@H](OC(=O)c3ccccc3)[C@]3(O)C[C@H](OC(=O)[C@H](O)[C@@H](NC(=O)c4ccccc4)c4ccccc4)C(C)=C1C3(C)C)[C@]1(OC(C)=O)CO[C@@H]1C[C@@H]2O` [Paclitaxel] was tested, and the “tumor response to treatment” value was “do not respond”.
